{"source": "patent US20090036426A1", "about": "(AMPLA Pharmaceuticals Inc., priority 2007, published 2009)", "key": {"CB1 receptor [1]": {"target": "T1, CB1 receptor (Homo sapiens, UniProt P21554)", "T1 sequence (P21554 whole entry)": "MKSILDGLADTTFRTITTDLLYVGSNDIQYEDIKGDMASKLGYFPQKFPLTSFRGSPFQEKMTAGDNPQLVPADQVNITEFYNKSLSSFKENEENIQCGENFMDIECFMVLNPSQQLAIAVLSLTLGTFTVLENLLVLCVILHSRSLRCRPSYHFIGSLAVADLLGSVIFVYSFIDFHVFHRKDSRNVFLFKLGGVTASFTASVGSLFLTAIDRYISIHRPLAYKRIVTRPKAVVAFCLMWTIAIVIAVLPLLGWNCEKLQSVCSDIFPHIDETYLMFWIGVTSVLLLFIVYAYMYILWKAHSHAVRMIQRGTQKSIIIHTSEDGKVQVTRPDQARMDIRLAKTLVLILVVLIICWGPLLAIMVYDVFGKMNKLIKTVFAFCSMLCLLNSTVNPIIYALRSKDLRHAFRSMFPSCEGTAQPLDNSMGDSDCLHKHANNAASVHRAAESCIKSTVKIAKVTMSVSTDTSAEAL", "assay": "Functional activity versus the CB1 receptor (statement, no method)"}, "CB1 receptor [2]": {"target": "T1, CB1 receptor", "assay": "[35S]GTPγS binding assay on CHO-k1 cell membranes", "format": "biochemical", "parameters": "expressed in transfected cells; host or cells: CHO-k1 cell membranes", "procedure": "[^35S]GTPγS binding assays were performed with CHO-k1 cell membranes stably expressing human CB1 receptors in 96-well ScintiPlate (PerkinElmer). The membranes (12.5 μg/well) were preincubated with compound 7 in the binding buffer (50 mM Tris-HCl, pH 7.4, 100 mM NaCl, 3 mM MgCl2, 0.2 mM EDTA, 0.2% BSA and 10 μM GDP) at 30° C. for 30 min, then added various concentrations of agonists (WIN 55212-2 or CP 55,940) and [^35S]GTPγS (0.2 nM) in a final volume of 200 μl. Reactions were carried out at 30° C. for 60 min, followed by centrifugation of plate at […] for 15 min. After removing supernatant, the radioactivity was quantitated on a TopCounter."}, "[3]": {"target": "T2, mouse CB1 (mouse brain membrane) (Mus musculus, UniProt P47746)", "T2 construct": "or mouse brain membrane preparations in 96-well plate format; from tissue; host or cells: mouse brain membranes", "T2 sequence (P47746 whole entry)": "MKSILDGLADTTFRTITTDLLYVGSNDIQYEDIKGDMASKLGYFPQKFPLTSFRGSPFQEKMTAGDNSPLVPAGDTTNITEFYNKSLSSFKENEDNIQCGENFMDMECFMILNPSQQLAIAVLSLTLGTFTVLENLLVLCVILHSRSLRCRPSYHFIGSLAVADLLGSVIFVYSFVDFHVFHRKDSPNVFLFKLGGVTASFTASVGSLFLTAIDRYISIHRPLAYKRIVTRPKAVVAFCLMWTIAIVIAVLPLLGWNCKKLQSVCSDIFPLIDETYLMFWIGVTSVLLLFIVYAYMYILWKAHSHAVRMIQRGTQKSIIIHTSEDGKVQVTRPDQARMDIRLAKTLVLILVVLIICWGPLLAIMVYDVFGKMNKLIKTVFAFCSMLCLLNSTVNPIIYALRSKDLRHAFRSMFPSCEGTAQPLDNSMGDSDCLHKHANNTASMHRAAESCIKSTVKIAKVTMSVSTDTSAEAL", "assay": "Competition ligand binding assay, mouse brain membrane preparations", "procedure": "(§1) Competition ligand binding assays were performed with the non-selective cannabinoid receptor agonist ([^3H]CP 55,940) (0.75 nM) in the binding buffer containing 50 mM Tris-HCl, pH 7.4, 3 mM MgCl2, 1 mM EDTA, 0.2% BSA using CHO-k1 cell membranes stably expressing human CB1 receptors or mouse brain membrane preparations in 96-well plate format. The receptor membranes (10 μg/well) were pre-incubated with different concentrations of tested compounds in the binding buffer at room temperature for 30 min prior to addition of 0.75 nM [^3H]CP 55,940 in a final volume of 100 μl. The binding was carried out at room temperature for another 2 h. To determine the non-specific binding, experiments were also performed in the presence of 10 μM unlabeled CP 55,940. Binding was terminated by addition of cold binding buffer and filtrated on Whatman GF/B glass-fiber filters using a sampling manifold. The filters were washed 6 times with cold binding buffer and air-dried overnight. The radioactivity was quantitated on a TopCounter (PerkinElmer) after adding scintillation fluid. Specific binding was defined as the difference between the binding in the presence and absence of 10 μM unlabeled CP 55, 940."}, "CB1 receptor [4]": {"target": "T1, CB1 receptor", "assay": "Competition ligand binding assay, CHO-k1 cell membranes", "parameters": "expressed in transfected cells; host or cells: CHO-k1 cell membranes", "conditions": "0.75 nM radioligand, FIG. 6", "procedure": "as §1"}, "[5]": {"target": "T3, Human Cannabinoid 1 (CB1) receptor (Homo sapiens, UniProt P21554)", "T3 construct": "expressed in transfected cells; host or cells: CHO cells stably expressing the GqΔGi chimera; clonal CB1 line", "T3 sequence (P21554 whole entry)": "as the sequence (P21554 whole entry) above", "assay": "Ca2+i response to 2-AG dose-response in CB1 cells with or without compound (DSIS flow cytometry)", "format": "cell-based", "conditions": "2-AG with or without compound, FIG. 2", "text": "cDNA for the G protein GqΔGi chimera was generated by PCR and inserted into the polylinker region of the pcDNA3/hygro+ vector (Invitrogen). Stable expression of GqΔGi chimera protein in CHO cell line was generated under hygromycin selection. Human Cannabinoid 1 (CB1) cDNA was inserted into the polylinker region of the pcDNA3.1/(+) vector (Invitrogen) and DNA was introduced into the GqΔGi/CHO cell line by Lipofectamine reagent (Invitrogen). Cell lines stably expressing the CB receptor with GqΔGi chimera protein were generated by double selection with hygromycin and G418 (Coward, P., et al. 1999. Chimeric G proteins allow a high-throughput signaling assay of Gi-coupled receptors. Anal Biochem. 270:242-8).\nCB1 Cells were plated 24-48 hours in advance, and were harvested with trypsin at ˜80% confluency. Cells were then centrifuged and resuspended two times in Hybridoma Media, the final time at a concentration of 1×10^6 cells/mL. Two μM of Indo-1 were added and cells were incubated for 1 hour on a rotator at room temperature. […]\nThe probe-loaded CB1 and Control cell mixture was placed in the Cell Suspension System on the DSIS where they were continuously rocked to keep them in a suspended state. […] The DSIS software, NVS Sampler, recorded a timing file and the CyAn software, Summit, recorded a data file. […]"}, "CB1 receptor [6]": {"target": "T1, CB1 receptor", "assay": "Dissociation kinetics assay with [3H]CP 55,940 on CHO-k1 cell membranes", "format": "binding", "parameters": "expressed in transfected cells; host or cells: CHO-k1 cell membranes", "conditions": "0.75 nM [3H]CP 55,940, room temperature, FIG. 3", "procedure": "Dissociation kinetics assays were performed with the non-selective cannabinoid receptor agonist ([^3H]CP 55,940) (0.75 nM) in the binding buffer containing 50 mM Tris-HCl, pH 7.4, 3 mM MgCl2, 1 mM EDTA, 0.2% BSA using CHO-k1 cell membranes stably expressing human CB1 receptors in 96-well plate format. The CB1 receptor membranes (10 μg/well) were incubated with 0.75 nM [^3H]CP 55,940 in 100 μl binding buffer at room temperature for 2 h. Dissociation was initiated with addition of 100 μl unlabeled CP 55,940 (10 μM) in binding buffer in the absence or presence of different concentrations of compounds (compound 7). Dissociation was carried out at room temperature for indicated time. To determine the non-specific binding, experiments were also performed in the presence of 10 μM unlabeled CP 55,940. Binding was terminated by addition of cold binding buffer and filtrated on Whatman GF/B glass-fiber filters using a sampling manifold. The filters were washed 6 times with cold binding buffer and air-dried overnight. The radioactivity was quantitated on a TopCounter (PerkinElmer) after adding scintillation fluid. Specific binding was defined as the difference between the binding in the presence and absence of 10 μM unlabeled CP 55,940."}, "CB2 receptor": {"target": "T4, CB2 receptor (Homo sapiens, UniProt P34972)", "T4 construct": "host or cells: CB2 receptor bearing cells (host line not described)", "T4 sequence (P34972 whole entry)": "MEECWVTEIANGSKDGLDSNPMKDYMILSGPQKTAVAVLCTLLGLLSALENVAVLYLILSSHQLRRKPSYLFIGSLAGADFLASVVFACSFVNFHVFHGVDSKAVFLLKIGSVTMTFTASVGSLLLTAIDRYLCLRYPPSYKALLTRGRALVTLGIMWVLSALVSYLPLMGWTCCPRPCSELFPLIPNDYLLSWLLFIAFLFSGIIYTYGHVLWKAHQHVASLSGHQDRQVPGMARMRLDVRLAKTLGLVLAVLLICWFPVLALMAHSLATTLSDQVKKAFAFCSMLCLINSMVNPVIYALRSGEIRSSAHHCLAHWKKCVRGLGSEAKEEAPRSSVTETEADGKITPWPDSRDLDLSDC", "assay": "Ca2+i response to 2-AG dose-response in CB2 receptor bearing cells with or without compound", "format": "cell-based", "conditions": "2-AG with or without compound, FIG. 2"}, "[7]": {"assay": "Body weight of diet-induced obese mice, chronic administration of Treatment E (Example 4)"}, "[8]": {"assay": "Body weight of diet-induced obese mice, repeated oral administration (Example 2)", "format": "in vivo, male C57BL/6J mice", "conditions": "for reduction of body weight: dosed for 28 days, DIO mice, FIG. 8", "procedure": "Sixty-five C57BL/6J mice (7-8 weeks of age) were ordered from Charles River, Margate, Kent. Mice were group housed in polypropylene cages with free access to a high fat diet (D12451 45% of Kcal derived from fat; Research Diets, New Jersey, USA) and tap water at all times. Animals were maintained at 21±4° C. and 55±20% humidity on a normal phase 12 h light-dark cycle (lights on 04:30 h)\nBody weight and food and water intake were recorded daily. Following drug administration the animals were examined and any overt behaviour was recorded. For all dosing, the morning session was timed such that approximately half the mice were dosed at the time of lights out (09:30).\nThe test compounds were dissolved in 1% methylcellulose. Drugs were made up fresh each day 1-2 h before dosing and were administered using a dose volume in the range of 1-3 ml/kg. Drug doses were expressed as free base.\nP<0.05 was considered to be statistically significant. Daily food and water intake data was analysed by ANOVA."}, "[9]": {"assay": "Acute administration: wet mash and food intake and 24 h body weight in lean mice (Example 3)", "format": "in vivo, male C57BL/6J mice", "conditions": "dosed orally at 10 mg/kg, one-way ANOVA"}}, "data": [{"smiles": "NCCC(Oc1ccc(C(F)(F)F)cc1)c1ccccc1", "note": "(racemic) [racemate of norfluoxetine, 3-(4-trifluoromethylphenoxy)-3-phenylpropylamine]", "values": [{"measurement": "functional activity versus the CB1 receptor", "setting": "CB1 receptor [1]", "value": "antagonist"}]}, {"smiles": "CNCC[C@@H](Oc1ccc(C(F)(F)F)cc1)c1ccccc1", "note": "[(R)-fluoxetine]", "values": [{"measurement": "functional activity versus the CB1 receptor", "setting": "CB1 receptor [1]", "value": "antagonist"}]}, {"smiles": "CNCC[C@H](Oc1ccc(C(F)(F)F)cc1)c1ccccc1", "note": "[(S)-Fluoxetine]", "values": [{"measurement": "functional activity versus the CB1 receptor", "setting": "CB1 receptor [1]", "value": "inverse agonist"}]}, {"smiles": "Fc1ccc(C(OCCCc2c[nH]cn2)c2ccc(F)cc2)cc1", "note": "[compound 7]", "values": [{"measurement": "pA2 estimation using CP 55940 as an agonist", "setting": "CB1 receptor [2]; CB1 cell line, FIG. 4", "value": "did not support an allosteric effect"}, {"measurement": "[35S]GTPγS binding: antagonist versus inverse agonist activity", "setting": "CB1 receptor [2]; response dropped below basal levels, FIG. 5", "value": "inverse agonist activity"}, {"measurement": "inhibition of agonist (CP 55940) binding", "setting": "[3]; mouse brain membrane, FIG. 7", "value": "inhibited"}, {"measurement": "inhibition of antagonist/inverse agonist (SR 141716) binding", "setting": "[3]; mouse brain membrane, FIG. 7", "value": "inhibited"}, {"measurement": "inhibition of binding of [3H]CP 55,940", "setting": "[3]; mouse brain membranes, 0.75 nM radioligand, FIG. 6", "value": "almost fully inhibited"}, {"measurement": "inhibition of binding of [3H]CP 55,940", "setting": "CB1 receptor [4]", "value": "partially inhibited"}, {"measurement": "effect on the 2-AG dose response (Ca2+i)", "setting": "[5]", "value": "right shift"}, {"measurement": "effect on the dissociation rate of [3H]CP 55,940", "setting": "CB1 receptor [6]", "value": "no effect"}, {"measurement": "effect on the 2-AG dose response (Ca2+i)", "setting": "CB2 receptor", "value": "No effect"}]}, {"smiles": "Cc1c(C(=O)NN2CCCCC2)nn(-c2ccc(Cl)cc2Cl)c1-c1ccc(Cl)cc1", "note": "[rimonabant]", "values": [{"measurement": "reduction in body weight", "setting": "[7]; 10 mg/kg orally, chronic administration, DIO mice, FIG. 22", "value": 15, "unit": "%"}, {"measurement": "weight reduction as compared to vehicle on day 29 (Dunnett's test)", "setting": "[7]; dosed orally at 10 mg/kg, p<0.001", "value": "statistically significant weight reduction"}, {"measurement": "reduction of body weight", "setting": "[8]; 10 mg/kg po", "value": 15, "unit": "%"}, {"measurement": "weight reduction as compared to vehicle on day 29 (Dunnett's test)", "setting": "[8]; 10 mg/kg po, p<0.001, DIO mice", "value": "statistically significant weight reduction"}, {"measurement": "24 hour body weight change versus vehicle", "setting": "[9]", "value": "No significant differences"}, {"measurement": "body weight versus vehicle", "setting": "[9]", "value": "No significant differences"}, {"measurement": "daily food intake versus vehicle", "setting": "[9]", "value": "No significant differences"}]}, {"smiles": "CC(C)CC(N(C)C)C1(c2ccc(Cl)cc2)CCC1", "note": "(centres unmarked) [sibutramine]", "values": [{"measurement": "reduction of body weight", "setting": "[8]; 20 mg/kg po", "value": 2, "unit": "%"}]}]}
